Measurements taken from PMC5963640 (Journal of Ocular Pharmacology and Therapeutics, 2018).

Columns and labels:
[1] = tested on: transformed human TM (HTM) cells (TM-1); experiment: Disruption of focal adhesions, high-content screening; assay type: cell-based; settings: 6 h incubation, read-out: HTM IC50 (disruption of focal adhesions)
[2] = tested on: primary porcine TM (PTM) cells; experiment: Disruption of actin stress fibers, high-content screening; assay type: cell-based; settings: Sus scrofa; 6 h incubation; read-out: PTM IC50 (disruption of actin stress fibers)
[3] = Absorption and distribution of radioactivity after single topical ocular dose; assay type: in vivo, Dutch Belted rabbits; settings: radioactivity; for AUClast / Cmax / T1/2,e / Tmax: 14C-netarsudil 0.02% single topical ocular dose
Protocol: A single topical ocular dose of 0.02% ^14C-netarsudil mesylate (35 μL drop) was administered to both eyes of 3 male Dutch Belted rabbits in each of 7 groups. At 0.25, 0.5, 1, 4, 8, 24, and 48 h postdose, the following samples were harvested from each group: whole blood, derived plasma, AH, vitreous humor, cornea, conjunctiva, lens, iris/ciliary body, retina-choroid-plexus, liver, and kidneys. All samples were assayed for total radioactivity. A study of the same design was conducted for AR-12286, using a single topical ocular dose of 0.5% ^3H-AR-12286 (35 μL drop).

Question: With O=S(=O)(c1cccc2cnccc12)N1CCCNCC1 [Fasudil, reference compound] as the compound, how does the IC50 [1] read?
Answer: 3.94 µM

Question: What about the IC50 [2] of the same compound?
Answer: 10.1 µM

Question: Which IC50 [1] does the source give for CC(N)[C@H]1CC[C@H](C(=O)Nc2ccncc2)CC1 (stereo partly shown) [Y27632, reference compound] here?
Answer: 1.74 µM

Question: What about the IC50 [2] of the same compound?
Answer: 9.97 µM

Question: What does the source list for Cc1ccc(C(=O)OCc2ccc([C@@H]([14CH2]N)C(=O)Nc3ccc4cnccc4c3)cc2)c(C)c1 [^14C-Netarsudil]?
Answer: AUClast ([3]; Aqueous humor, L eye): 510 ng·eq·h/g; Cmax ([3]; Aqueous humor, L eye): 16 ng·eq/g; T1/2,e ([3]; Aqueous humor, L eye): 17 h; Tmax ([3]; Aqueous humor, L eye): 8 h; AUClast ([3]; Aqueous humor, R eye): 613 ng·eq·h/g; Cmax ([3]; Aqueous humor, R eye): 23 ng·eq/g; T1/2,e ([3]; Aqueous humor, R eye): 16 h; Tmax ([3]; Aqueous humor, R eye): 8 h; AUClast ([3]; Blood): 15 ng·eq·h/g; Cmax ([3]; Blood): 1 ng·eq/g; T1/2,e ([3]; Blood): 27 h; Tmax ([3]; Blood): 0.25 h; AUClast ([3]; Conjuctiva, L eye): 9,525 ng·eq·h/g; Cmax ([3]; Conjuctiva, L eye): 2,442 ng·eq/g; T1/2,e ([3]; Conjuctiva, L eye): 13 h; Tmax ([3]; Conjuctiva, L eye): 0.25 h; AUClast ([3]; Conjuctiva, R eye): 12,390 ng·eq·h/g; Cmax ([3]; Conjuctiva, R eye): 3,292 ng·eq/g; T1/2,e ([3]; Conjuctiva, R eye): 17 h; Tmax ([3]; Conjuctiva, R eye): 0.25 h; AUClast ([3]; Cornea, L eye): 63,387 ng·eq·h/g; Cmax ([3]; Cornea, L eye): 3,666 ng·eq/g; T1/2,e ([3]; Cornea, L eye): 14 h; Tmax ([3]; Cornea, L eye): 0.5 h; AUClast ([3]; Cornea, R eye): 69,605 ng·eq·h/g; Cmax ([3]; Cornea, R eye): 3,972 ng·eq/g; T1/2,e ([3]; Cornea, R eye): 13 h; Tmax ([3]; Cornea, R eye): 0.25 h; AUClast ([3]; Iris-ciliary body, L eye): 10,845 ng·eq·h/g; Cmax ([3]; Iris-ciliary body, L eye): 955 ng·eq/g; Tmax ([3]; Iris-ciliary body, L eye): 0.25 h; AUClast ([3]; Iris-ciliary body, R eye): 11,555 ng·eq·h/g; Cmax ([3]; Iris-ciliary body, R eye): 416 ng·eq/g; T1/2,e ([3]; Iris-ciliary body, R eye): 112 h; Tmax ([3]; Iris-ciliary body, R eye): 8 h; AUClast ([3]; Kidney): 298 ng·eq·h/g; Cmax ([3]; Kidney): 19 ng·eq/g; T1/2,e ([3]; Kidney): 16 h; Tmax ([3]; Kidney): 1 h; AUClast ([3]; Lens, L eye): 33 ng·eq·h/g; Cmax ([3]; Lens, L eye): 2 ng·eq/g; T1/2,e ([3]; Lens, L eye): 99 h; Tmax ([3]; Lens, L eye): 0.25 h; AUClast ([3]; Lens, R eye): 37 ng·eq·h/g; Cmax ([3]; Lens, R eye): 2 ng·eq/g; T1/2,e ([3]; Lens, R eye): 83 h; Tmax ([3]; Lens, R eye): 0.25 h; AUClast ([3]; Liver): 88 ng·eq·h/g; Cmax ([3]; Liver): 6 ng·eq/g; T1/2,e ([3]; Liver): 13 h; Tmax ([3]; Liver): 1 h; AUClast ([3]; Plasma): 24 ng·eq·h/g; Cmax ([3]; Plasma): 1 ng·eq/g; T1/2,e ([3]; Plasma): 16 h; Tmax ([3]; Plasma): 0.5 h; AUClast ([3]; Retina-choroid-plexus, L eye): 1,390 ng·eq·h/g; Cmax ([3]; Retina-choroid-plexus, L eye): 80 ng·eq/g; T1/2,e ([3]; Retina-choroid-plexus, L eye): 204 h; Tmax ([3]; Retina-choroid-plexus, L eye): 0.25 h; AUClast ([3]; Retina-choroid-plexus, R eye): 1,298 ng·eq·h/g; Cmax ([3]; Retina-choroid-plexus, R eye): 50 ng·eq/g; T1/2,e ([3]; Retina-choroid-plexus, R eye): 68 h; Tmax ([3]; Retina-choroid-plexus, R eye): 0.5 h; AUClast ([3]; Vitreous humor, L eye): 51 ng·eq·h/g; Cmax ([3]; Vitreous humor, L eye): 7 ng·eq/g; T1/2,e ([3]; Vitreous humor, L eye): 12 h; Tmax ([3]; Vitreous humor, L eye): 0.25 h; AUClast ([3]; Vitreous humor, R eye): 51 ng·eq·h/g; Cmax ([3]; Vitreous humor, R eye): 4 ng·eq/g; T1/2,e ([3]; Vitreous humor, R eye): 15 h; Tmax ([3]; Vitreous humor, R eye): 0.25 h; Tmax in AH ([3]; netarsudil 0.02% single topical ocular dose): 8 h
